Assay results published in US4581360A, “Sparsomycin (Sc -Rs) derivative; pharmaceutical composition having anti-tumor activity” (priority 1982, dated 1986).
pIC50: −log10 of the molar value. ≈ marks a conversion by molar mass, not a printed value. Like-named read-outs stand apart in the source and are kept apart here.

Assays:
[1] = test system: ribosomes from E. coli (protein synthesis); experiment: inhibition of polyphenylalanine synthesis, cell-free system; assay type: biochemical; conditions: 30 min, read-out: ED50 E. coli polyphe
Protocol: The activity of the novel compounds was also measured in two cell-free systems, namely Saccharomyces cerevisiae and E. coli, a prokaryotic and a eukaryotic system, respectively.
(§1) Polyphenylalanine synthesis. The reaction mixture was slightly different for E. coli and for yeast.
E. coli. […] (^3 H)phenylalanine 30 μM (about 60 cpm/pmol) was added to start the reaction. Incubation was at 37° C. for 30 min. The reaction was stopped by addition of 1 ml of 10% TCA and the samples filtered through glass fiber. The filters were washed with 10 ml of cold 10% TCA, dried and counted for radioactivity.

leukemia L 1210 cells = experiment: in-vitro clonogenic L 1210 assay (inhibition of colony formation in soft agar); assay type: cell-based; conditions: for IC50: Mus musculus, L1210, 72 h, read-out: ID50 (dose giving 50% inhibition of L 1210 colony formation)
Protocol: The in-vitro clonogenic assay was effected in leukemia L 1210 cells in soft agar medium (0.3%). There is a good correlation between the activity in vitro and that in vivo of the medicaments investigated. On the basis of the findings in the in-vitro analysis, therefore, the in-vivo activity can be predicted with good results. In the analysis, the inhibition of the L 1210 colony formation by sparsomycin and derivates thereof is determined for various concentrations, and the dose giving 50% inhibition of the colony formation, as compared with non-treated control cells is calculated (ID50). The analysis is carried out as follows (variant of the method described in Cancer Chemother.Rep. (1967), 51, 451).
From a suspension culture one hundred L 1210 cells are plated out in 35 mm culture dishes (Falcon) containing 1 ml soft agar culture medium and the compound to be investigated in suitable concentrations. The soft agar culture medium consists of Dulbecco's medium supplemented with 20% horse serum, 60 μmole 2-mercaptoethanol, 20 mg/ml L-asparagine, 75 mg/ml DEAE dextran (molecular weight 2×10^6) and 0.3% bacto agar (Difco). The culture dishes were incubated at 37° C. in an atmosphere of 10% CO2 in humidified air for 3 days. After this period of continuous exposure to the medicament the colonies were counted and dose-effect curves made. From these curves, the medicament dose is calculated which causes 50% inhibition of the colony formation as compared with non-treated control cells.

[2] = test system: ribosomes from E. coli (peptidyl transferase); experiment: fragment reaction, cell-free system; assay type: biochemical; conditions: 30% ethanol in water, 30 min, read-out: ED50 E. coli fragment reaction
Protocol: (§2) The activity of the novel compounds was also measured in two cell-free systems, namely Saccharomyces cerevisiae and E. coli, a […]. The inhibition of the protein biosynthesis was measured, and this in two ways, by means of both the fragment reaction (R. E. Monro, Methods Enzymol. 1971, 20, 472) and the inhibition of the polyphenylalanine synthesis (N. W. Nirenberg, H. Matthei, Proc.Natl. Acad. Sci. USA 1961, 47, 1588). The concentration of sparsomycin or an analog giving 50% inhibition of the protein synthesis relative to the control is given as ED50.
(§3) Fragment reaction. The reaction described originally by Monro (see reference in the text) was carried out in 150 μl of 33 mM Tris-HCl pH 7.4, 270 mM KCl, 13 mM magnesium acetate containing 1 mg/ml of ribosomes, 2.10^-3 M puromycin, 1 pmol of (^3 H)Leu-ACCAC(U), the required concentration of sparsomycin analog as indicated in the text and 33% ethanol. The reaction was initiated by the addition of the alcohol and allowed to proceed at 0° C. for 30 min. and then stopped by the addition of 100 μl of 0.3M sodium acetate pH 5.5 saturated with MgSO4. The samples were extracted with 1.5 ml of ethyl acetate and 1 ml of the organic phase was checked for radioactivity.
(§4) The 3' terminal pentanucleotide (^3 H)Leu-ACCAC(U) was prepared from (^3 H)Leu-tRNA by ribonuclease T1 as described (Monro, as above).
(§5) Ribosomes and supernatant fractions from E. coli and Saccharomyces cerevisiae were prepared according to standard procedures (Staehelin, T. and Maglott D. R. (1971). Methods Enzymol. 20, 449-456; Sanchez-Madrid, F., Reyes, R., Conde, P. and Ballesta, J. P. G. (1979) Eur. J. Biochem. 98, 409-416).

[3] = test system: ribosomes from Saccharomyces cerevisiae (peptidyl transferase); experiment: fragment reaction, cell-free system; assay type: biochemical; conditions: 30% ethanol in water, 30 min, read-out: ED50 s.c. fragment reaction
Protocol: as §2, §3, §4, §5

[4] = test system: ribosomes from Saccharomyces cerevisiae (protein synthesis); experiment: inhibition of polyphenylalanine synthesis, cell-free system; assay type: biochemical; conditions: 30 min, read-out: ED50 s.c. polyphe
Protocol: as §2, §1
E. coli. The reaction mixture (50 μl) contained 65 mM Tris-HCl pH 7.6, 15 mM MgCl2, 90 mM KCl, 15 mM β-mercaptoethanol, 1 mM GTP, 10 mM ATP, 0.2 mg/ml of polyuridylic acid, 1.5 mg/ml of tRNA, 10 μM of ribosomes, 2.5 mg/ml of phosphoenolpyruvate, 20 μg/ml of pyruvate kinase, the required concentration of sparsomycin analog, as indicated in the text, and 5 μl of supernatant fraction S-100. (^3 H)phenylalanine 30 μM (about 60 cpm/pmol) was added to start the reaction. Incubation was at 37° C. for 30 min. The reaction was stopped by addition of 1 ml of 10% TCA and the samples filtered through glass fiber. The filters were washed with 10 ml of cold 10% TCA, dried and counted for radioactivity.
Yeast. The test was carried out as indicated above for E. Coli but replacing the phosphoenol pyruvate and pyruvate kinase by creatine phosphokinase (50 μg/ml) and creatine phosphate (20 mM). The incubation was performed at 30° C. for 30 min. and the samples processed as above.
In these conditions the control samples polymerized 3 to […] 14 molecules of phenylalanine per ribosome in the case of yeast and E. coli respectively. […]

solubility in water = assay type: physicochemical
Protocol: The n-octylsparsomycin is poorly dissolved in water (about 0.2 mg/ml water), whereas benzylsparsomycin is dissolved well in water (1.5 mg/ml water). As a consequence, the use of the latter compound is highly attractive.

[5] = acute toxicity (LDx values); assay type: in vivo; conditions: in vivo, mouse
Text: (§6) The acute LDx values (lethal dose for x% of the animals) are shown below.

pharmacokinetics in dog = conditions: iv
whole reticulocytes = conditions: Biochem.Biophys. Acta (1966), 119, 109; cited from earlier work
[6] = clinical tests (Cancer.Chemother.Rep. (1969), 43, 29); cited from earlier work
mouse = experiment: acute toxicity (LDx values); assay type: in vivo; conditions: i.p.
Text: as §6

[7] = L 1210 cells, soft agar 0.3%, 3 days continuous exposure

Structure (SMILES)	pIC50 [1]	IC50 (leukemia L 1210 cells; [7]) [mg/L]	pIC50 [2]	pIC50 [3]	pIC50 [4]	solubility (solubility in water; read-out: solubility in water) [mg/mL]	IC50 (leukemia L 1210 cells) [mg/L]	AUC (pharmacokinetics in dog; in vivo, 0.7 mg/kg) [µg·h/mL]	half-life (pharmacokinetics in dog; in vivo, 0.7 mg/kg) [h]	other results
CSC[S@+]([O-])C[C@H](COC(C)=O)NC(=O)/C=C/c1c(C)[nH]c(=O)[nH]c1=O [O--acetylsparsomycin, O-acetyl-sparsomycin (Sc -Rs)]	5.10	0.15 (≈ 0.372 µM)	4.82	4.30	5.52					
Cc1[nH]c(=O)[nH]c(=O)c1C=CC(=O)NC(CO)C[S+]([O-])CSCc1ccccc1 (stereo not shown) [benzylsparsomycin, Benzylsparsomycin (Sc -Rs)]	6.10					1.5 (≈ 3430 µM)	0.048 (≈ 0.11 µM)			solubility (solubility in water; H2O, pH=7, read-out: Solubility in H2O (pH=7)): 1.5 mg/mL (≈ 3430 µM)
CCCCCCCCSC[S@+]([O-])C[C@H](CO)NC(=O)/C=C/c1c(C)[nH]c(=O)[nH]c1=O [n-octylsparsomycin, n-octyl-sparsomycin (Sc -Rs)]	5.82	0.047 (≈ 0.102 µM)	4.10	3.74	6.46	~0.2 (≈ 435 µM)		1.1	1.1	LD50 ([5]; iv): > 30 mg/kg; dose excreted (pharmacokinetics in dog; bile, 0.7 mg/kg): 3.4%; AUC (pharmacokinetics in dog; in vivo, 0.9 mg/kg): 1.2 µg·h/mL; half-life (pharmacokinetics in dog; in vivo, 0.9 mg/kg): 1.6 h; dose excreted (pharmacokinetics in dog; urine, 0.7 mg/kg): 0%; activity relative to sparsomycin proper (leukemia L 1210 cells; L 1210 colony formation, concentrations in ng/ml): approximately 3; activity relative to sparsomycin, concentrations expressed in μmole/ml (leukemia L 1210 cells; L 1210 colony formation, concentrations in μmole/ml): approximately four times higher
CSC[S@+]([O-])C[C@H](CO)NC(=O)/C=C/c1c(C)[nH]c(=O)[nH]c1=O [sparsomycin, Sparsomycin (Sc -Rs)]	5.05		5.22	4.82	5.40		0.15 (≈ 0.415 µM)	1.3	1.1	activity against whole reticulocytes (whole reticulocytes): not active; toxicity in clinical tests [6]: eye toxicity; LD50 ([5]; ip): 14 mg/kg; LD10 (mouse): 8.0 mg per kg mouse; dose excreted (pharmacokinetics in dog; in vivo, 0.7 mg/kg, Recovery in urine, i.v. bolus): 24%; AUC (pharmacokinetics in dog; in vivo, 1.48 mg/kg): 10.8 µg·h/mL; half-life (pharmacokinetics in dog; in vivo, 1.48 mg/kg): 2.3 h; dose excreted (pharmacokinetics in dog; in vivo, 1.48 mg/kg, Recovery in gall liquid, i.v. bolus): 2%; dose excreted (pharmacokinetics in dog; in vivo, 1.48 mg/kg, Recovery in urine, i.v. bolus): 55%
